Measurements reported in ChEMBL document CHEMBL2311263, “Dibenzosuberones as p38 mitogen-activated protein kinase inhibitors with low ATP competitiveness and outstanding whole blood activity” (J Med Chem, 2013).
Calls of active or inactive are those of the source. The rule behind the calls is not given here.

What was measured:
[1] = target: T1, Mitogen-activated protein kinase 14 (Homo sapiens, UniProt Q16539); test: Inhibition of p38alpha MAP kinase in whole blood (unknown origin) assessed as lipopolysaccharide-stimulated TNF-alpha release by ELISA
[2] = target: T1, Mitogen-activated protein kinase 14; test: Inhibition of p38alpha MAP kinase (unknown origin) by ELISA
[3] = target: Casein kinase I isoform epsilon (Homo sapiens) (UniProt P49674); test: Inhibition of CSNK1E (unknown origin)
[4] = target: Mitogen-activated protein kinase 11 (Homo sapiens) (UniProt Q15759); test: Inhibition of p38beta MAP kinase (unknown origin)
[5] = target: T1, Mitogen-activated protein kinase 14; settings: Blood, 1 uM
[6] = target: T1, Mitogen-activated protein kinase 14; test: Inhibition of p38alpha MAP kinase in whole blood (unknown origin) assessed as lipopolysaccharide-stimulated TNF-alpha release measuring residual activity at 10 uM by ELISA

T1 sequence (Q16539 whole entry): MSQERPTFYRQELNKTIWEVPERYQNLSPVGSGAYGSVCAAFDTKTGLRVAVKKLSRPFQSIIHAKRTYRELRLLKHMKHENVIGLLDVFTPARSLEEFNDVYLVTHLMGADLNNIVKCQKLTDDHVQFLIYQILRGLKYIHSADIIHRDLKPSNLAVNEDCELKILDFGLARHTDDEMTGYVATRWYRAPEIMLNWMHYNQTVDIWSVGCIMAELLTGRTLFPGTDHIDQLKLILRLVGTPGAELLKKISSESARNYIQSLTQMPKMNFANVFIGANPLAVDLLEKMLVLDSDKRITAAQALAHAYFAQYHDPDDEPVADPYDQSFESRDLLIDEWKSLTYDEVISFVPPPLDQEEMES
Sequence of Mitogen-activated protein kinase 11 (Homo sapiens) (Q15759 whole entry): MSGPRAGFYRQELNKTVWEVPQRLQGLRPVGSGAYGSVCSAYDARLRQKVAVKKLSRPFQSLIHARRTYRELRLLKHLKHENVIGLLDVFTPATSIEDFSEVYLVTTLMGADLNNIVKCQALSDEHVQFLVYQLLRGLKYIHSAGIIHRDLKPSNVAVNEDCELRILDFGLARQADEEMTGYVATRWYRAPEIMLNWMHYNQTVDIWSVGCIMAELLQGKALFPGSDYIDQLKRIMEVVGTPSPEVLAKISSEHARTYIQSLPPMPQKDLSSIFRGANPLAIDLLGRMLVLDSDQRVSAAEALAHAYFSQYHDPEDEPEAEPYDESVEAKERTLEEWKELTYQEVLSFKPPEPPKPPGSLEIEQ
Sequence of Casein kinase I isoform epsilon (Homo sapiens) (P49674 whole entry, looked up, canonical isoform): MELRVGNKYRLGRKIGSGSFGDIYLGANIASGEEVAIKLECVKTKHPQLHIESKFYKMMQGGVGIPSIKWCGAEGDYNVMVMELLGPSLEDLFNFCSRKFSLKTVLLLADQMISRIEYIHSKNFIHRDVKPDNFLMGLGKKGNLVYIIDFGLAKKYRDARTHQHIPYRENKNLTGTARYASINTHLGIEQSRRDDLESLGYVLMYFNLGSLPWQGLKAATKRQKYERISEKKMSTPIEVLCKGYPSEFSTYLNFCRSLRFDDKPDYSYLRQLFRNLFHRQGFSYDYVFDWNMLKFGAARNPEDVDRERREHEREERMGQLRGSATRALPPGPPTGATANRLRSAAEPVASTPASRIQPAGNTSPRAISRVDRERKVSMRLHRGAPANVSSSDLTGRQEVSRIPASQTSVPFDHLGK

| SMILES | IC50 [1] [nM] | IC50 [2] [nM] | other results |
| --- | --- | --- | --- |
| CC(=O)Oc1ccc2c(c1)C(=O)c1ccc(Nc3ccc(F)cc3F)cc1CC2 | 2300 | 29 |  |
| O=C(NC(CO)CO)c1ccc2c(c1)C(=O)c1ccc(Nc3ccc(F)cc3F)cc1CC2 | 17 | 9 |  |
| O=C(NCCN1CCOCC1)c1ccc2c(c1)C(=O)c1ccc(Nc3ccc(F)c(NC(=O)c4ccccc4)c3)cc1CC2 |  |  | inhibition [3]: Active; inhibition [4]: Active |
| NC(=O)c1ccc2c(c1)C(=O)c1ccc(Nc3ccc(F)cc3F)cc1CC2 | 19 | 10 |  |
| O=C(NCCO)c1ccc2c(c1)C(=O)c1ccc(Nc3ccc(F)cc3F)cc1CC2 | 27 | 5 |  |
| CC1(C)OC[C@@H](COc2ccc3c(c2)C(=O)c2ccc(Nc4ccc(F)c(NC(=O)c5ccccc5)c4)cc2CC3)O1 | 450 | 27 |  |
| O=C1c2ccc(Nc3cc(NC(=O)C4CCOC4)c(F)cc3F)cc2CCc2ccc(OCCN3CCOCC3)cc21 (configuration not stated) | 150 | 12 |  |
| CN1CCN(CCNC(=O)c2ccc3c(c2)C(=O)c2ccc(Nc4ccc(F)cc4F)cc2CC3)CC1 | 27 | 10 |  |
| CN1CCN(CCCNC(=O)c2ccc3c(c2)C(=O)c2ccc(Nc4ccc(F)cc4F)cc2CC3)CC1 | 19 | 10 |  |
| COCCNC(=O)c1ccc2c(c1)C(=O)c1ccc(Nc3ccc(F)cc3F)cc1CC2 | 54 | 5 |  |
| O=C(Nc1cc(Nc2ccc3c(c2)CCc2ccc(OCCN4CCOCC4)cc2C3=O)c(F)cc1F)c1ccsc1 | 12 |  |  |
| CCOC(=O)CNC(=O)c1ccc2c(c1)C(=O)c1ccc(Nc3ccc(F)cc3F)cc1CC2 | 95 | 6 |  |
| CC(C)C[C@H](NC(=O)c1ccc2c(c1)C(=O)c1ccc(Nc3ccc(F)cc3F)cc1CC2)C(=O)O |  | 94 | inhibition [5]: inactive |
| Cc1cc(F)c(NC(=O)C2CCOC2)cc1Nc1ccc2c(c1)CCc1ccc(OCCN3CCOCC3)cc1C2=O (configuration not stated) | 570 | 98 |  |
| COC(=O)CC[C@H](NC(=O)c1ccc2c(c1)C(=O)c1ccc(Nc3ccc(F)cc3F)cc1CC2)C(=O)OC | 18 | 5 |  |
| CNC(=O)CC[C@H](NC(=O)c1ccc2c(c1)C(=O)c1ccc(Nc3ccc(F)cc3F)cc1CC2)C(=O)NC | 64 | 14 |  |
| C[C@@H](NC(=O)c1ccc2c(c1)C(=O)c1ccc(Nc3ccc(F)cc3F)cc1CC2)C1CCCCC1 | 7600 | 89 |  |
| COc1ccc2c(c1)C(=O)c1ccc(Nc3ccc(F)c(NC(=O)c4ccccc4)c3)cc1CC2 | 4100 | 21 |  |
| O=C1c2ccc(Nc3ccc(F)cc3F)cc2CCc2ccc(C(=O)N3CCOCC3)cc21 |  | 44 | Activity [6]: 39% |
| O=C(Nc1cc(Nc2ccc3c(c2)CCc2ccccc2C3=O)c(F)cc1F)c1ccccc1 | 290 | 4 |  |
| COC(=O)[C@H](CC(C)C)NC(=O)c1ccc2c(c1)C(=O)c1ccc(Nc3ccc(F)cc3F)cc1CC2 | 460 | 7 |  |
| O=C(O)c1ccc2c(c1)C(=O)c1ccc(Nc3ccc(F)cc3F)cc1CC2 | 490 | 11 |  |
| O=C1c2ccc(Nc3ccc(F)c(NC(=O)C4CCOC4)c3)cc2CCc2ccc(OCCO)cc21 (configuration not stated) | 1500 | 20 |  |
| CCCOC(=O)c1ccc2c(c1)C(=O)c1ccc(Nc3ccc(F)cc3F)cc1CC2 | 220 | 8 |  |
| CN(C)CCNC(=O)c1ccc2c(c1)C(=O)c1ccc(Nc3ccc(F)cc3F)cc1CC2 | 18 | 3 |  |
| O=C(Nc1cc(Nc2ccc3c(c2)CCc2ccc(OC[C@H](O)CO)cc2C3=O)ccc1F)c1cccs1 | 42 | 7 |  |
| CNC(=O)c1ccc2c(c1)C(=O)c1ccc(Nc3ccc(F)cc3F)cc1CC2 | 37 | 3 |  |

More lines, in order of falling IC50 [2], values ahead:

| IC50 [1] [nM] | IC50 [2] [nM] | SMILES | other results |
| --- | --- | --- | --- |
| 50 | 3 | CS(=O)(=O)CCNC(=O)c1ccc2c(c1)C(=O)c1ccc(Nc3ccc(F)cc3F)cc1CC2 |  |
| 29 | 3 | O=C(NCCN1CCOCC1)c1ccc2c(c1)C(=O)c1ccc(Nc3ccc(F)cc3F)cc1CC2 |  |
| 64 | 3 | O=C(NCCCl)c1ccc2c(c1)C(=O)c1ccc(Nc3ccc(F)cc3F)cc1CC2 |  |
| 270 | 3 | CCOC(=O)c1ccc2c(c1)C(=O)c1ccc(Nc3ccc(F)cc3F)cc1CC2 |  |
| 29 | 2 | O=C(NCC(O)CO)c1ccc2c(c1)C(=O)c1ccc(Nc3ccc(F)cc3F)cc1CC2 (configuration not stated) | inhibition [4]: Active |
| 160 | 2 | COC(=O)c1ccc2c(c1)C(=O)c1ccc(Nc3ccc(F)cc3F)cc1CC2 |  |
| 210 | 2 | O=C(OCCO)c1ccc2c(c1)C(=O)c1ccc(Nc3ccc(F)cc3F)cc1CC2 |  |
| 83 | 2 | O=C(NCCF)c1ccc2c(c1)C(=O)c1ccc(Nc3ccc(F)cc3F)cc1CC2 |  |
| 36 | 2 | CSCCNC(=O)c1ccc2c(c1)C(=O)c1ccc(Nc3ccc(F)cc3F)cc1CC2 |  |
| 9000 | 2 | O=C(Nc1ccc(F)c(Nc2ccc3c(c2)CCc2ccc(OCCO)cc2C3=O)c1)c1ccccc1 |  |
| 2400 | 2 | O=C(Nc1cc(Nc2ccc3c(c2)CCc2ccc(OCCO)cc2C3=O)ccc1F)c1ccccc1 |  |
| 300 | 2 | CC1(C)OC[C@H](COc2ccc3c(c2)C(=O)c2ccc(Nc4ccc(F)c(NC(=O)c5cccs5)c4)cc2CC3)O1 |  |
| 260 | 1 | O=C(Nc1cc(Nc2ccc3c(c2)CCc2ccc(OCCN4CCOCC4)cc2C3=O)ccc1F)c1ccccc1 |  |
| 220 | 1 | O=C(Nc1cc(Nc2ccc3c(c2)CCc2ccc(OCCN4CCOCC4)cc2C3=O)c(F)cc1F)c1ccccc1 |  |
| 240 | 1 | O=C(OCCN1CCOCC1)c1ccc2c(c1)C(=O)c1ccc(Nc3ccc(F)cc3F)cc1CC2 |  |
| 32 | 1 | Cc1cc(F)c(NC(=O)c2ccoc2)cc1Nc1ccc2c(c1)CCc1ccc(OCCN3CCOCC3)cc1C2=O |  |
| 110 | 1 | O=C(Nc1cc(Nc2ccc3c(c2)CCc2ccc(OCCN4CCOCC4)cc2C3=O)ccc1F)c1ccoc1 |  |
| 95 | 0.7 | O=C(Nc1cc(Nc2ccc3c(c2)CCc2ccc(OCCN4CCOCC4)cc2C3=O)ccc1F)c1cccs1 |  |
| 26 | 0.3 | O=C(Nc1cc(Nc2ccc3c(c2)CCc2ccc(OCCN4CCOCC4)cc2C3=O)ccc1F)c1ccsc1 |  |
